According to patent US6355799B1, “Substituted benzene compounds, process for their preparation, and herbicidal and defoliant compositions containing them” (ISK Americas Incorporated, priority 1997, dated 2002):

Key:
Type in all cases: in vivo
[1] = test system: redroot pigweed (Amaranthus retroflexus, AMARE); test: Pre-emerge test, greenhouse herbicide activity screening; conditions: pre-emerge, phytotoxicity rating 0-100 at 14 days after application
Outline: (§1)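 Visual ratings on a 0-100 scale (0 no damage, 100 all plants dead) were taken at 14 days after treatment. Rates of 15-1000 g ai/ha in acetone, 187 l/ha, were sprayed onto soil one day after planting (pre-emerge) or onto 2-3 leaf plants with 0.25% v/v surfactant (post-emerge).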

[2] = test system: barnyardgrass (Echinochloa crus-galli, ECHCG); test: as above; conditions: pre-emerge, phytotoxicity rating 0-100 at 14 days after application
Outline: as §1

[3] = test system: green foxtail (Setaria viridis, SETVI); test: as above; conditions: pre-emerge, phytotoxicity rating 0-100 at 14 days after application
Outline: as §1

[4] = test system: ivyleaf morningglory (Ipomoea hederacea, IPOHE); test: as above; conditions: pre-emerge, phytotoxicity rating 0-100 at 14 days after application
Outline: as §1

[5] = test system: johnsongrass (Sorghum halepense, SORHA); test: as above; conditions: pre-emerge, phytotoxicity rating 0-100 at 14 days after application
Outline: as §1

[6] = test system: lambsquarters (Chenopodium album, CHEAL); test: as above; conditions: pre-emerge, phytotoxicity rating 0-100 at 14 days after application
Outline: as §1

[7] = test system: large crabgrass (Digitaria sanguinalis, DIGSA); test: as above; conditions: pre-emerge, phytotoxicity rating 0-100 at 14 days after application
Outline: as §1

[8] = test system: sicklepod (Cassia obtusifolia, CASOB); test: as above; conditions: pre-emerge, phytotoxicity rating 0-100 at 14 days after application
Outline: as §1

[9] = test system: velvetleaf (Abutilon theophrasti, ABUTH); test: as above; conditions: pre-emerge, phytotoxicity rating 0-100 at 14 days after application
Outline: as §1

[10] = test system: field corn (Zea mays L., var. Dekalb 535, CORN); test: Pre-emerge test, crop safety; conditions: crop damage, pre-emerge, phytotoxicity rating 0-100 at 14 days after application
Outline: (§2)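 Applied at 15–1000 g ai/ha from acetone in 187 l/ha spray volume. Post-emergence applications included 0.25% v/v non-ionic surfactant and reached plants sown 8–21 days before. Pre-emergence applications were incorporated by surface watering. Efficacy or crop damage was rated on a 0–100 scale after 14 days.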

[11] = test system: upland rice (Oryza sp., var. Tebonnet, RICE); test: Pre-emerge test, crop safety; conditions: crop damage, pre-emerge, phytotoxicity rating 0-100 at 14 days after application
Outline: as §2

[12] = test system: barnyardgrass (Echinochloa crus-galli, ECHCG); test: Post-emerge test, greenhouse herbicide activity screening; conditions: post-emerge, phytotoxicity rating 0-100 at 14 days after application
Outline: (§3)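 Each test used a mechanized track sprayer delivering 187 l/ha of acetone solution at 15–1000 g ai/ha. Post-emerge foliage at 2–3 leaves was treated with added 0.25% v/v non-ionic surfactant and bottom-watered only. Injury was assessed on day 14, where 100 means total kill.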

[13] = test system: green foxtail (Setaria viridis, SETVI); test: as above; conditions: post-emerge, phytotoxicity rating 0-100 at 14 days after application
Outline: as §3

[14] = test system: ivyleaf morningglory (Ipomoea hederacea, IPOHE); test: as above; conditions: post-emerge, phytotoxicity rating 0-100 at 14 days after application
Outline: as §3

[15] = test system: johnsongrass (Sorghum halepense, SORHA); test: as above; conditions: post-emerge, phytotoxicity rating 0-100 at 14 days after application
Outline: as §3

[16] = test system: lambsquarters (Chenopodium album, CHEAL); test: as above; conditions: post-emerge, phytotoxicity rating 0-100 at 14 days after application
Outline: as §3

[17] = test system: large crabgrass (Digitaria sanguinalis, DIGSA); test: as above; conditions: post-emerge, phytotoxicity rating 0-100 at 14 days after application
Outline: as §3

[18] = test system: redroot pigweed (Amaranthus retroflexus, AMARE); test: as above; conditions: post-emerge, phytotoxicity rating 0-100 at 14 days after application
Outline: as §3

[19] = test system: sicklepod (Cassia obtusifolia, CASOB); test: as above; conditions: post-emerge, phytotoxicity rating 0-100 at 14 days after application
Outline: as §3

[20] = test system: velvetleaf (Abutilon theophrasti, ABUTH); test: as above; conditions: post-emerge, phytotoxicity rating 0-100 at 14 days after application
Outline: as §3

[21] = test system: field corn (Zea mays L., var. Dekalb 535, CORN); test: Post-emerge test, crop safety; conditions: post-emerge, crop damage rating 0-100 at 14 days after application
Outline: as §1

[22] = test system: upland rice (Oryza sp., var. Tebonnet, RICE); test: Post-emerge test, crop safety; conditions: post-emerge, crop damage rating 0-100 at 14 days after application
Outline: as §1

SMILES: COc1cccc(OC)c1OC(=O)Nc1c(C)c(Cl)cc(F)c1-n1c(=O)cc(C(F)(F)F)n(C)c1=O [4-59]
- Pre-emerge Herbicidal Activity AMARE ([1]; rate 63 g ai/ha): 100
- Pre-emerge Herbicidal Activity AMARE ([1]; rate 250 g ai/ha): 100
- Pre-emerge Herbicidal Activity ECHCG ([2]; rate 63 g ai/ha): 10
- Pre-emerge Herbicidal Activity ECHCG ([2]; rate 250 g ai/ha): 90
- Pre-emerge Herbicidal Activity SETVI ([3]; rate 63 g ai/ha): 30
- Pre-emerge Herbicidal Activity SETVI ([3]; rate 250 g ai/ha): 90
- Pre-emerge Herbicidal Activity IPOHE ([4]; rate 63 g ai/ha): 95
- Pre-emerge Herbicidal Activity IPOHE ([4]; rate 250 g ai/ha): 100
- Pre-emerge Herbicidal Activity SORHA ([5]; rate 63 g ai/ha): 40
- Pre-emerge Herbicidal Activity SORHA ([5]; rate 250 g ai/ha): 95
- Pre-emerge Herbicidal Activity CHEAL ([6]; rate 63 g ai/ha): 100
- Pre-emerge Herbicidal Activity CHEAL ([6]; rate 250 g ai/ha): 100
- Pre-emerge Herbicidal Activity DIGSA ([7]; rate 63 g ai/ha): 40
- Pre-emerge Herbicidal Activity DIGSA ([7]; rate 250 g ai/ha): 100
- Pre-emerge Herbicidal Activity CASOB ([8]; rate 63 g ai/ha): 20
- Pre-emerge Herbicidal Activity CASOB ([8]; rate 250 g ai/ha): 90
- Pre-emerge Herbicidal Activity ABUTH ([9]; rate 63 g ai/ha): 100
- Pre-emerge Herbicidal Activity ABUTH ([9]; rate 250 g ai/ha): 100
- Pre-emerge Herbicidal Activity CORN ([10]; rate 63 g ai/ha): 5
- Pre-emerge Herbicidal Activity CORN ([10]; rate 250 g ai/ha): 80
- Pre-emerge Herbicidal Activity RICE ([11]; rate 63 g ai/ha): 0
- Pre-emerge Herbicidal Activity RICE ([11]; rate 250 g ai/ha): 70
- Post-emerge Herbicidal Activity ECHCG ([12]; 63 g ai/ha): 0
- Post-emerge Herbicidal Activity ECHCG ([12]; 250 g ai/ha): 20
- Post-emerge Herbicidal Activity SETVI ([13]; 63 g ai/ha): 0
- Post-emerge Herbicidal Activity SETVI ([13]; 250 g ai/ha): 30
- Post-emerge Herbicidal Activity IPOHE ([14]; 63 g ai/ha): 100
- Post-emerge Herbicidal Activity IPOHE ([14]; 250 g ai/ha): 100
- Post-emerge Herbicidal Activity SORHA ([15]; 63 g ai/ha): 0
- Post-emerge Herbicidal Activity SORHA ([15]; 250 g ai/ha): 30
- Post-emerge Herbicidal Activity CHEAL ([16]; 63 g ai/ha): 100
- Post-emerge Herbicidal Activity CHEAL ([16]; 250 g ai/ha): 100
- Post-emerge Herbicidal Activity DIGSA ([17]; 63 g ai/ha): 0
- Post-emerge Herbicidal Activity DIGSA ([17]; 250 g ai/ha): 20
- Post-emerge Herbicidal Activity AMARE ([18]; 63 g ai/ha): 90
- Post-emerge Herbicidal Activity AMARE ([18]; 250 g ai/ha): 100
- Post-emerge Herbicidal Activity CASOB ([19]; 63 g ai/ha): 30
- Post-emerge Herbicidal Activity CASOB ([19]; 250 g ai/ha): 60
- Post-emerge Herbicidal Activity ABUTH ([20]; 63 g ai/ha): 100
- Post-emerge Herbicidal Activity ABUTH ([20]; 250 g ai/ha): 100
- Post-emerge Herbicidal Activity CORN ([21]; 63 g ai/ha): 5
- Post-emerge Herbicidal Activity CORN ([21]; 250 g ai/ha): 25
- Post-emerge Herbicidal Activity RICE ([22]; 63 g ai/ha): 50
- Post-emerge Herbicidal Activity RICE ([22]; 250 g ai/ha): 60

SMILES: O=C(Nc1cc(Cl)ccc1N1C(=O)C2=C(CCCC2)C1=O)c1ccc2ccccc2c1 [8-36]
- Pre-emerge Herbicidal Activity AMARE ([1]; rate 63 g ai/ha): 100
- Pre-emerge Herbicidal Activity AMARE ([1]; rate 250 g ai/ha): 100
- Pre-emerge Herbicidal Activity ECHCG ([2]; rate 63 g ai/ha): 0
- Pre-emerge Herbicidal Activity ECHCG ([2]; rate 250 g ai/ha): 0
- Pre-emerge Herbicidal Activity SETVI ([3]; rate 63 g ai/ha): 0
- Pre-emerge Herbicidal Activity SETVI ([3]; rate 250 g ai/ha): 30
- Pre-emerge Herbicidal Activity IPOHE ([4]; rate 63 g ai/ha): 10
- Pre-emerge Herbicidal Activity IPOHE ([4]; rate 250 g ai/ha): 20
- Pre-emerge Herbicidal Activity SORHA ([5]; rate 63 g ai/ha): 0
- Pre-emerge Herbicidal Activity SORHA ([5]; rate 250 g ai/ha): 0
- Pre-emerge Herbicidal Activity CHEAL ([6]; rate 63 g ai/ha): 100
- Pre-emerge Herbicidal Activity CHEAL ([6]; rate 250 g ai/ha): 100
- Pre-emerge Herbicidal Activity DIGSA ([7]; rate 63 g ai/ha): 0
- Pre-emerge Herbicidal Activity DIGSA ([7]; rate 250 g ai/ha): 40
- Pre-emerge Herbicidal Activity CASOB ([8]; rate 63 g ai/ha): 10
- Pre-emerge Herbicidal Activity CASOB ([8]; rate 250 g ai/ha): 30
- Pre-emerge Herbicidal Activity ABUTH ([9]; rate 63 g ai/ha): 80
- Pre-emerge Herbicidal Activity ABUTH ([9]; rate 250 g ai/ha): 30
- Pre-emerge Herbicidal Activity CORN ([10]; rate 63 g ai/ha): 0
- Pre-emerge Herbicidal Activity CORN ([10]; rate 250 g ai/ha): 0
- Pre-emerge Herbicidal Activity RICE ([11]; rate 63 g ai/ha): 20
- Pre-emerge Herbicidal Activity RICE ([11]; rate 250 g ai/ha): 40
- Post-emerge Herbicidal Activity ECHCG ([12]; 63 g ai/ha): 0
- Post-emerge Herbicidal Activity ECHCG ([12]; 250 g ai/ha): 20
- Post-emerge Herbicidal Activity SETVI ([13]; 63 g ai/ha): 10
- Post-emerge Herbicidal Activity SETVI ([13]; 250 g ai/ha): 10
- Post-emerge Herbicidal Activity IPOHE ([14]; 63 g ai/ha): 100
- Post-emerge Herbicidal Activity IPOHE ([14]; 250 g ai/ha): 85
- Post-emerge Herbicidal Activity SORHA ([15]; 63 g ai/ha): 0
- Post-emerge Herbicidal Activity SORHA ([15]; 250 g ai/ha): 10
- Post-emerge Herbicidal Activity CHEAL ([16]; 63 g ai/ha): 95
- Post-emerge Herbicidal Activity CHEAL ([16]; 250 g ai/ha): 100
- Post-emerge Herbicidal Activity DIGSA ([17]; 63 g ai/ha): 10
- Post-emerge Herbicidal Activity DIGSA ([17]; 250 g ai/ha): 5
- Post-emerge Herbicidal Activity AMARE ([18]; 63 g ai/ha): 95
- Post-emerge Herbicidal Activity AMARE ([18]; 250 g ai/ha): 90
- Post-emerge Herbicidal Activity CASOB ([19]; 63 g ai/ha): 70
- Post-emerge Herbicidal Activity CASOB ([19]; 250 g ai/ha): 95
- Post-emerge Herbicidal Activity ABUTH ([20]; 63 g ai/ha): 100
- Post-emerge Herbicidal Activity ABUTH ([20]; 250 g ai/ha): 100
- Post-emerge Herbicidal Activity CORN ([21]; 63 g ai/ha): 10
- Post-emerge Herbicidal Activity CORN ([21]; 250 g ai/ha): 15
- Post-emerge Herbicidal Activity RICE ([22]; 63 g ai/ha): 10
- Post-emerge Herbicidal Activity RICE ([22]; 250 g ai/ha): 20
